Reference: the supplement of paper PMC11061612

Tests used:
Olaparib = compound: O=C(c1cc(Cc2n[nH]c(=O)c3ccccc23)ccc1F)N1CCN(C(=O)C2CC2)CC1 [Olaparib]; details: max 10 µM
How it was run: (§1)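 Following 24 hours at 37°C and 5% CO2, cancer cell lines in 1536-well plates with 7.5 μl DMEM/F12 or RPMI and 10% FBS were dosed for 72 hours, final DMSO typically being 0.2%. CellTiter-Glo 2.0 luminescence, scaled between blank-well and DMSO-well means, gave the viability readout. Dose responses were fitted to a two-parameter logistic curve with a non-linear mixed effects model, and the single-agent IC50 was derived from this fit.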

Savolitinib = compound: C[C@@H](c1ccc2nccn2c1)n1nnc2ncc(-c3cnn(C)c3)nc21 [Savolitinib]; details: max 1 µM
How it was run: as §1

AZD8186 = compound: C[C@@H](Nc1cc(F)cc(F)c1)c1cc(C(=O)N(C)C)cc2c(=O)cc(N3CCOCC3)oc12 [AZD8186]; details: max 3 µM
How it was run: as §1

AZD0156 = compound: CN(C)CCCOc1ccc(-c2ccc3ncc4c(c3c2)n(C2CCOCC2)c(=O)n4C)cn1 [AZD0156]; details: max 3 µM
How it was run: as §1

Crizotinib = compound: C[C@@H](Oc1cc(-c2cnn(C3CCNCC3)c2)cnc1N)c1c(Cl)ccc(F)c1Cl [Crizotinib]; details: max 10 µM
How it was run: as §1

Alisertib = compound: COc1cc(Nc2ncc3c(n2)-c2ccc(Cl)cc2C(c2c(F)cccc2OC)=NC3)ccc1C(=O)O [Alisertib]; details: max 10 µM
How it was run: as §1

SN-38 = compound: CCc1c2c(nc3ccc(O)cc13)-c1cc3c(c(=O)n1C2)COC(=O)[C@]3(O)CC [SN-38]; details: max 0.3 µM
How it was run: as §1

AZD7648 = compound: Cc1cc2ncnn2cc1Nc1ncc2c(n1)n(C1CCOCC1)c(=O)n2C [AZD7648]; details: max 10 µM
How it was run: as §1

Selumetinib = compound: Cn1cnc2c(F)c(Nc3ccc(Br)cc3Cl)c(C(=O)NOCCO)cc21 [Selumetinib]; details: max 10 µM
How it was run: as §1

AZD4320 = compound: CN(CC[C@H](CSC1=CC=CC=C1)NC2=C(C=C(C=C2)S(=O)(=O)NC(=O)C3=CC=C(C=C3)N4CCC(CC4)[C@H](C5=CC=CC=C5C6=CC=C(C=C6)Cl)O)S(=O)(=O)C(F)(F)F)CCO [AZD4320]; details: max 1 µM
How it was run: as §1

Dasatinib = compound: CC1=C(C(=CC=C1)Cl)NC(=O)C2=CN=C(S2)NC3=CC(=NC(=N3)C)N4CCN(CC4)CCO [Dasatinib]; details: max 2 µM
How it was run: as §1

Venetoclax = compound: CC1(C)CCC(CN2CCN(c3ccc(C(=O)NS(=O)(=O)c4ccc(NCC5CCOCC5)c([N+](=O)[O-])c4)c(Oc4cnc5[nH]ccc5c4)c3)CC2)=C(c2ccc(Cl)cc2)C1 [Venetoclax]; details: max 1 µM
How it was run: as §1

Lapatinib = compound: CS(=O)(=O)CCNCc1ccc(-c2ccc3ncnc(Nc4ccc(OCc5cccc(F)c5)c(Cl)c4)c3c2)o1 [Lapatinib]; details: max 10 µM
How it was run: as §1

Capivasertib = compound: C1CN(CCC1(C(=O)N[C@@H](CCO)C2=CC=C(C=C2)Cl)N)C3=NC=NC4=C3C=CN4 [Capivasertib]
How it was run: as §1

AZD5991 = compound: Cc1c2c(nn1C)CSCc1cc(n(C)n1)CSc1cc(c3ccccc3c1)OCCCc1c(C(=O)O)n(C)c3c-2c(Cl)ccc13 [AZD5991]; details: max 1 µM
How it was run: as §1

Gefitinib = compound: COc1cc2ncnc(Nc3ccc(F)c(Cl)c3)c2cc1OCCCN1CCOCC1 [Gefitinib]; details: max 10 µM
How it was run: as §1

SG3199 = compound: CC1=CN2[C@@H](C1)C=NC3=CC(=C(C=C3C2=O)OC)OCCCCCOC4=C(C=C5C(=C4)N=C[C@@H]6CC(=CN6C5=O)C)OC [SG3199]; details: max 0.001 µM
How it was run: as §1

Palbociclib = compound: CC(=O)c1c(C)c2cnc(Nc3ccc(N4CCNCC4)cn3)nc2n(C2CCCC2)c1=O [Palbociclib]; details: max 10 µM
How it was run: as §1

AZD6738 = compound: C[C@@H]1COCCN1C2=NC(=NC(=C2)C3(CC3)[S@](=N)(=O)C)C4=C5C=CNC5=NC=C4 [AZD6738]; details: max 10 µM
How it was run: as §1

Trametinib = compound: CC(=O)Nc1cccc(-n2c(=O)n(C3CC3)c(=O)c3c(Nc4ccc(I)cc4F)n(C)c(=O)c(C)c32)c1 [Trametinib]; details: max 1 µM
How it was run: as §1

Prexasertib = compound: COc1cccc(OCCCN)c1-c1cc(Nc2cnc(C#N)cn2)n[nH]1 [Prexasertib]; details: max 1 µM
How it was run: as §1

Doxorubicin = compound: COc1cccc2c1C(=O)c1c(O)c3c(c(O)c1C2=O)C[C@@](O)(C(=O)CO)C[C@@H]3O[C@H]1C[C@H](N)[C@H](O)[C@H](C)O1 [Doxorubicin]; details: max 1 µM
How it was run: as §1

Taselisib = compound: Cc1nc(-c2cn3c(n2)-c2ccc(-c4cnn(C(C)(C)C(N)=O)c4)cc2OCC3)n(C(C)C)n1 [Taselisib]; details: max 10 µM
How it was run: as §1

AZD1390 = compound: CC(C)n1c(=O)n(C)c2cnc3cc(F)c(-c4ccc(OCCCN5CCCCC5)nc4)cc3c21 [AZD1390]; details: max 0.3 µM
How it was run: as §1

AZD2811 = compound: CCN(CCO)CCCOc1ccc2c(Nc3cc(CC(=O)Nc4cccc(F)c4)[nH]n3)ncnc2c1 [AZD2811]; details: max 1 µM
How it was run: as §1

AZD5153 = compound: COc1nnc2ccc(N3CCC(c4ccc(OCCN5CCN(C)C(=O)[C@H]5C)cc4)CC3)nn12 [AZD5153]; details: max 1 µM
How it was run: as §1

AZD1775 = compound: C=CCn1c(=O)c2cnc(Nc3ccc(N4CCN(C)CC4)cc3)nc2n1-c1cccc(C(C)(C)O)n1 [AZD1775]; details: max 3 µM
How it was run: as §1

Cell Line | IC50, cell viability 72 h (Olaparib) | IC50, cell viability 72 h (Savolitinib) | IC50, cell viability 72 h (AZD8186) | IC50, cell viability 72 h (AZD0156) | IC50, cell viability 72 h (Crizotinib) | IC50, cell viability 72 h (Alisertib) | IC50, cell viability 72 h (SN-38) | IC50, cell viability 72 h (AZD7648) | IC50, cell viability 72 h (Selumetinib) | IC50, cell viability 72 h (AZD4320) | IC50, cell viability 72 h (Dasatinib) | IC50, cell viability 72 h (Venetoclax) | IC50, cell viability 72 h (Lapatinib) | IC50, cell viability 72 h (Capivasertib; max 10 µM) | IC50, cell viability 72 h (AZD5991) | IC50, cell viability 72 h (Gefitinib) | IC50, cell viability 72 h (SG3199) | IC50, cell viability 72 h (Palbociclib) | IC50, cell viability 72 h (AZD6738) | IC50, cell viability 72 h (Trametinib) | IC50, cell viability 72 h (Prexasertib) | IC50, cell viability 72 h (Doxorubicin) | IC50, cell viability 72 h (Taselisib) | IC50, cell viability 72 h (AZD1390) | IC50, cell viability 72 h (AZD2811) | IC50, cell viability 72 h (AZD5153) | IC50, cell viability 72 h (AZD1775) | IC50, cell viability 72 h (Capivasertib; max 3 µM)
G-361 (Melanoma) | > 10000 nM | > 1000 nM | > 3000 nM | > 3000 nM | 8660 nM | > 10000 nM | > 300 nM | > 10000 nM | 1540 nM | > 1000 nM | > 2000 nM | > 1000 nM | 8000 nM | > 10000 nM | 306 nM | > 10000 nM | > 1 nM | > 10000 nM | > 10000 nM | 14.6 nM | 149 nM | 816 nM | 7240 nM | > 300 nM | > 1000 nM | 277 nM | 1590 nM | –
HCC1187 (Breast Carcinoma) | > 10000 nM | > 1000 nM | > 3000 nM | > 3000 nM | 4570 nM | 114 nM | > 300 nM | > 10000 nM | > 10000 nM | > 1000 nM | > 2000 nM | > 1000 nM | > 10000 nM | > 10000 nM | 87.7 nM | > 10000 nM | > 1 nM | > 10000 nM | > 10000 nM | > 1000 nM | 362 nM | > 1000 nM | > 10000 nM | > 300 nM | 29.4 nM | > 1000 nM | 1060 nM | –
HCC1419 (Breast Carcinoma) | > 10000 nM | > 1000 nM | > 3000 nM | > 3000 nM | – | > 10000 nM | > 300 nM | > 10000 nM | > 10000 nM | > 1000 nM | – | > 1000 nM | – | – | > 1000 nM | > 10000 nM | > 1 nM | – | > 10000 nM | > 1000 nM | > 1000 nM | > 1000 nM | 7760 nM | > 300 nM | > 1000 nM | > 1000 nM | > 3000 nM | > 3000 nM
JHH-4 (Hepatocellular Carcinoma) | > 10000 nM | > 1000 nM | > 3000 nM | > 3000 nM | > 10000 nM | 6480 nM | 31 nM | > 10000 nM | > 10000 nM | > 1000 nM | 173 nM | > 1000 nM | > 10000 nM | > 10000 nM | > 1000 nM | > 10000 nM | > 1 nM | > 10000 nM | > 10000 nM | 118 nM | 912 nM | > 1000 nM | > 10000 nM | > 300 nM | > 1000 nM | > 1000 nM | > 3000 nM | –
